Measured values as given in the METLIN SMRT retention time set (Domingo-Almenara et al. 2019).

assay: gradient 5% acetonitrile 3 min, to 50% in 2 min, to 85% in 15 min, held 3 min, 100 µL/min; conditions: column: Zorbax Extend-C18 2.1 x 50 mm; eluents: water / acetonitrile, 0.1% formic acid
How it was run: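 Retention times of pure standards were taken from adduct peaks that were selected by computer and manually inspected. Over 3 months, mixtures of ~100 molecules were run by HPLC–quadrupole time-of-flight mass spectrometry in positive and negative ionization mode. The Zorbax Extend-C18 column (2.1 × 50 mm, 1.8 μm) ran at 100 μL/min in water and acetonitrile, each containing 0.1% formic acid, with 40 μL dead volume and 900 μL dwell volume.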

SMILES	RP-LC retention time
Cn1nccc1-c1csc(S(=O)(=O)NC2CCCC2)c1	806 s
Cc1ccc(-c2nnc(-c3nc(NCCCN4CCCC4=O)c4ccccc4n3)o2)cc1	807 s
CC(C)(C)c1csc(-c2csc(S(=O)(=O)NCc3ccccc3)c2)n1	1230 s
CCCCNC(=O)C1Cc2ccccc2CN1S(=O)(=O)c1ccccc1 (stereo not drawn)	960 s
CCOC(=O)CNC(=O)NCc1cccn1Cc1ccccc1	793 s
O=C(Nc1cccc(-c2cn3cccnc3n2)c1)c1cccc(Br)c1	728 s
CON=C(C(=O)N[C@@H]1C(=O)N2C(C(=O)O)=C(CSc3nnnn3C)CS[C@H]12)c1csc(N)n1	621 s
COc1cc(C(=O)Nc2nc3c(s2)Cc2c(Br)ccc(OC)c2-3)cc(OC)c1OC	1170 s
COCC(=O)N(CC(=O)N1CCc2sccc2C1COc1ccc(C)cc1)C(C)C (stereo not drawn)	867 s
CC1(C(=O)NCc2ccc(Cl)cc2)CN(S(C)(=O)=O)CC(=O)N1Cc1ccccc1 (stereo not drawn)	858 s
CCc1ccc(-c2cc3c(=O)n(Cc4noc(CN5CCCC5)n4)ccn3n2)cc1	694 s
CCc1ccc(NC(=O)Cn2nc3cc(C)nc(Nc4ccc(C)c(F)c4)n3c2=O)cc1	1190 s
Cc1ccc(C(=O)N2C[C@H](c3nc(-c4cccnc4)no3)[C@@H](C)C2)c(C)c1	853 s
Cc1cccc(-c2noc(Cn3c(=O)n(Cc4ccccc4)c(=O)c4sccc43)n2)c1	1060 s
Fc1ccccc1-c1noc(Cc2nnc(-c3cccc(Cl)c3)o2)n1	1080 s
CC12CC(NC(=O)N1c1cccc(C(=O)NCc3ccco3)c1)c1cc(Br)ccc1O2 (stereo not drawn)	846 s
Cn1nccc1-c1cccc(-c2noc(-c3cnccn3)n2)c1	786 s
CCCCn1c(N)c(C(=O)OCC)c2nc3ccccc3nc21	613 s
CCOc1ccc(-c2noc(Cc3nc(-c4ccccc4)cs3)n2)cc1	1240 s
CSc1ccccc1C(=O)N1CC2CC1C(=O)O2 (stereo not drawn)	628 s
O=C(Cc1c[nH]c2ccccc12)NCCc1c[nH]c2ccc(Cl)cc12	857 s
CC(C)NC(=O)c1cccc(Nc2c(-c3ccccc3)nc3cnccn23)c1	719 s
CCCCN1CCN(C(=O)COc2ccc(NC(=O)C3CC3)cn2)CC1	570 s
c1ccc2c(CCNc3nc(N4CCCC4)c4n[nH]nc4n3)c[nH]c2c1	621 s
CN1C(=O)C2(CCN(C(=O)COc3ccc(Cl)cc3)C2)c2ccccc21 (stereo not drawn)	838 s
CCN(CC)S(=O)(=O)c1ccc2c(c1)CC(C(=O)NCCc1ccc(C)cc1)N2C(C)=O (stereo not drawn)	842 s

SMILES	RP-LC retention time
CCn1c(C(=O)Nc2cc(C)cc(C)c2)cc2sc(Cl)cc21	1110 s
COCCN1CC2(CCN(S(=O)(=O)c3ccc(C)c(Cl)c3)CC2)C1c1ccccc1 (stereo not drawn)	765 s
CC(C)n1cnc2ccc(-c3noc(-c4cccs4)n3)cc21	746 s
Cc1ccc(S(=O)(=O)NCc2ccccn2)c(C)c1C	626 s
Cc1ccc(S(=O)(=O)N2CC=C(N)N2)cc1	684 s
CC(C)Cc1ccc(S(=O)(=O)N2CCc3c(c(-c4nnc(-c5ccccc5F)o4)nn3C)C2)cc1	1140 s
CC(C)CN1Cc2ccccc2-n2ccnc2C12CCN(C(=O)c1ccc(F)cc1)CC2	739 s
CCCN(C)C(=O)c1cc2c(s1)N(CC1CC1)CCCC2	1160 s
CCN1c2ccc(C)cc2C(=O)NC12CCN(C(=O)c1ccc(C)cc1C)CC2	902 s
O=C(NCc1cccnc1Oc1ccccc1)c1cnn2cccnc12	695 s
Cc1ccc(N2CCC(NC(=O)Nc3cc(Cl)ccc3C)C2=O)cc1 (stereo not drawn)	956 s
COCCN1CCn2cc(S(=O)(=O)Nc3ccc(C)cc3C)cc2C1=O	730 s
CN(C(=O)CN1C(=O)NC2(CCCCC2)C1=O)c1ccccc1	740 s
CCOc1cc(-c2nc(C3CC(=O)N(c4ccc(F)c(Cl)c4)C3)no2)cc(OCC)c1OCC (stereo not drawn)	1290 s
CC(C)(C)c1ccc(-c2noc(CN3C(=O)COc4cc(Cl)ccc43)n2)cc1	1360 s
CC(=O)Nc1ccc(NC(=O)CCNc2c(-c3ccc(F)cc3)nc3cnccn23)cc1	630 s
Cc1cccc(-c2ncccc2CNS(=O)(=O)c2cccc(Cl)c2)c1	763 s
Cc1cnc(C2CC2)n1CCNS(=O)(=O)c1cc(F)cc(F)c1	615 s
CC(C)(C)c1csc(-c2csc(S(=O)(=O)NCc3ccc(F)cc3F)c2)n1	1220 s
CCCCN(CC)C(=O)c1cc(NC(=O)CC(C)C)cnc1N1CCNCC1	632 s
NC(=O)c1cc[nH]c1C1CCCN(C(=O)c2cscn2)C1 (stereo not drawn)	579 s
CC1=C(C(=O)OCCc2ccccc2)C(c2ccc(C)s2)NC(=O)N1 (stereo not drawn)	859 s
CNC(=O)c1cc2c(s1)N(CC1CC1)CCCC2	889 s
O=C(Cn1cnc2nc3c(cc2c1=O)CCCC3)Nc1ccccc1F	703 s
Cc1ccc(F)c2c(=O)c3c([nH]c12)CCN(CC(=O)Nc1ccc(F)c(F)c1)C3	635 s
COc1ccc(C)cc1NS(=O)(=O)c1cc2c3c(c1)CCC(=O)N3CCC2	973 s

Further lines, results first:

RP-LC retention time	SMILES
968 s	CC1CCN(c2cc(-n3cnc(C(=O)NC4CCCC4)c3)ncn2)CC1
766 s	Cc1ccc(-n2nc3c(N4CCCC(C(=O)NCCc5ccccc5)C4)nnc(C)c3c2C)cc1 (stereo not drawn)
678 s	Cc1nnc(N2CCCC(C(=O)NCCCOC(C)C)C2)c2nn(-c3ccccc3)c(C)c12 (stereo not drawn)
948 s	O=C(Cc1cccc(F)c1)N1CCc2cc(-c3ccno3)ccc21
746 s	O=C(c1ccccc1Br)N1CCCN(C(=O)C2CC2)c2ccccc21
715 s	O=C(NCc1ccco1)C1CCN(c2nnc3ccc(C(F)(F)F)cn23)CC1
705 s	O=C(NC1CCN(c2cc(-c3ccc(F)cc3)[nH]n2)C1)c1ccccc1 (stereo not drawn)
888 s	COc1ccc(N2CCN(c3nccc4ccc(C(=O)NCCC5=CCCCC5)cc34)CC2)cc1
653 s	CC(C)Cn1c(=O)c(N2CCN(C(=O)Cc3ccsc3)CC2)nc2ccncc21
819 s	COc1ccccc1NC(=O)Cn1nc(N2CCOCC2)c2ccccc2c1=O
795 s	COc1cc(Cl)c(NC(=O)C2CCN(C(=O)C3Sc4ccccc4NC3=O)CC2)c(OC)c1 (stereo not drawn)
597 s	CC(=O)N1CCN(c2nc3c(s2)CC(C(=O)NCc2cc(F)cc(F)c2)CC3)CC1 (stereo not drawn)
735 s	CCOCCCNC(=O)N1CC(Oc2cccc(-c3nc(C)no3)c2)C1
862 s	O=C(Nc1ccc(Cl)cc1)C1CCCN(S(=O)(=O)c2c[nH]c(C(=O)N3CCCC3)c2)C1 (stereo not drawn)
712 s	O=C(c1nc2ccccn2c1-c1ccc(Cl)cc1)N1CCCC1
838 s	COc1ccccc1N1CCN(CC(O)COc2cccc3ccccc23)CC1 (stereo not drawn)
818 s	CC1=C(c2ccccc2)S(=O)(=O)N=C1N1CCCN(C(=O)NCCC(C)C)CC1
1100 s	CCCN1C(=O)COc2ccc(-c3csc(NC(=O)C4CCCCC4)n3)cc21

RP-LC retention time	SMILES
822 s	O=C(c1ccccc1F)N1CCC(C(=O)N2CCc3ccccc32)CC1
669 s	O=C1CCCCC(C(=O)Nc2ccc3c(c2)OCCO3)N1 (stereo not drawn)
538 s	Cc1ccc2nc(C(=O)N3CCN(c4ccccn4)CC3)cn2c1
850 s	O=C(Nc1ccc2c(c1)OCCO2)C(=O)c1cn(CC(=O)N2CCOCC2)c2ccccc12
616 s	COc1cccc(CNC(=O)C2CCN(c3cc(N4CCOCC4)ncn3)CC2)c1
907 s	CC(=O)N1c2ccc(S(=O)(=O)N3CCCC3)cc2CC1C(=O)NC1CCCCCCC1 (stereo not drawn)
804 s	COc1cc(NC(=O)N2CCC(N3CCN(Cc4ccccc4)C3=O)CC2)cc(OC)c1
769 s	O=C(C1=CN(c2ccc(F)cc2)c2cc(F)ccc2S1(=O)=O)N1CCOCC1
851 s	COc1cccc(Cn2nc3n(C)c(=O)c4ccc(C(=O)NC5CCCC5)cc4n3c2=O)c1
1170 s	CC1CCN(c2ccc(C(=O)NCC3CCCO3)cc2S(=O)(=O)N2CCC(C)CC2)CC1 (stereo not drawn)
705 s	COc1ccccc1N1CCN(c2ncc3c(n2)CCN(Cc2cccc(C)c2)C3)CC1
578 s	O=C(NCc1ccccc1)C1CCc2nc(N3CCN(C(=O)C4CCC4)CC3)sc2C1 (stereo not drawn)
792 s	O=C(CCn1cnc2cc(-c3noc(/C=C/c4ccccc4)n3)ccc21)N1CCCC1
730 s	Cc1nnc(N2CCC(C(=O)NCCc3c[nH]c4ccccc34)CC2)c2nn(-c3ccccc3)c(C)c12
734 s	O=C(Nc1ccc(F)cc1F)C1CCc2nc(N3CCOCC3)ncc2C1 (stereo not drawn)
1000 s	COc1ccc(N2CCN(S(=O)(=O)c3cc(-c4nnc(C5CCC5)o4)co3)CC2)cc1
1060 s	CCc1nc(-c2csc(S(=O)(=O)N3CCCC(C(=O)Nc4cccc(C)c4C)C3)c2)no1 (stereo not drawn)
620 s	Cc1cc(C)cc(NC(=O)Nc2ccc3nc(N4CCN(C)CC4)cc(C)c3c2)c1
